One compound from patent publication US12085564B2, “Assay to determine in vivo receptor occupancy” (BRISTOL-MYERS SQUIBB COMPANY, priority 2018, dated 2024) can be followed below.

This assay has as its target T1, Recombinant BTK (Homo sapiens, UniProt Q06187).
T1 construct: purchased Life Technologies (Carlsbad, CA) PV3587
Put plainly: Preparation of DB-BTK / QB-BTK reference standards: covalent reaction of recombinant BTK with excess drug or quencher. It counts as biochemical. The settings on record: recombinant BTK 5.9 μM, excess amount of drug, RT for 1 h.

T1 sequence (Q06187 whole entry): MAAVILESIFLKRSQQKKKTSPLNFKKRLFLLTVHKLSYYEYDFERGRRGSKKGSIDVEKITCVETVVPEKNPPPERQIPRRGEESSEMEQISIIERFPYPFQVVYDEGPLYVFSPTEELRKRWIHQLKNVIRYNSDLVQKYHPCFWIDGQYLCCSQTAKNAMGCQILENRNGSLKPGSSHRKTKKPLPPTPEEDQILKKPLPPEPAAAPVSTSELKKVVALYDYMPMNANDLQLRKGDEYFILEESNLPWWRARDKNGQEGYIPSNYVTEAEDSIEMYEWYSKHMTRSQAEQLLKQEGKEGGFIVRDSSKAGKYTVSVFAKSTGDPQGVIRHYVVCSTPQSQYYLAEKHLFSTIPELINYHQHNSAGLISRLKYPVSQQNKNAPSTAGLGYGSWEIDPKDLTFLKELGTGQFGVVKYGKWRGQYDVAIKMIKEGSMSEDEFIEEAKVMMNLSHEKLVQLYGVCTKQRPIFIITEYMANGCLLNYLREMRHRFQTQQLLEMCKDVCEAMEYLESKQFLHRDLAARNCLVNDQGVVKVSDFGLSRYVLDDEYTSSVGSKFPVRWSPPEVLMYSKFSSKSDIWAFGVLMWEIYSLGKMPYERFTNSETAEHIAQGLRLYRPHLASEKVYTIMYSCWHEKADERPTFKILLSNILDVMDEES
Description: Recombinant BTK (5.9 μM, 200 μL) was combined with 400 μL of PBS, and then spiked with 15 μL of 1.0 mg/mL drug solution (compound shown in FIG. 1A) in acetonitrile (2701 μM drug, 15 μL). The solution was then incubated at RT for 1 h, resulting in a DB-BTK concentration of 1919 nM.
Recombinant BTK (5.9 μM, 200 μL) was combined with 400 μL of PBS, and then spiked with 15 μL of 1.0 mg/mL quencher solution (compound shown in FIG. 1B) in acetonitrile (2806 μM quencher, 15 μL). The solution was incubated at RT for 1 h, resulting in a QB-BTK concentration of 1919 nM.

As to `CC#CC(=O)N[C@H]1CCCN(c2c(F)cc(C(N)=O)c3[nH]c(C)c(C)c23)C1` [compound shown in FIG. 1A], the “conversion of free BTK to DB-BTK” value is recorded as ~100%.
